From PubChem BioAssay (NCI)
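Step 1: Grow cells in 96-well plates. Step 2: Expose to compound for 48 hours at 5 concentrations. Step 3: Interpolate endpoints linearly; if unreached, use highest concentration. GI50 is the concentration that inhibits growth by half. At the TGI there is no net growth.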

Tests used:
Test in all cases: inhibition of tumour cell growth, NCI panel, 48 h
NCI-H23 lung = tested on: NCI-H23 lung
HCC-2998 colon = tested on: HCC-2998 colon
HCT-15 colon = tested on: HCT-15 colon
IGROV1 ovarian = tested on: IGROV1 ovarian
HOP-62 NSCLC = tested on: HOP-62 NSCLC
OVCAR-8 ovarian = tested on: OVCAR-8 ovarian
EKVX NSCLC = tested on: EKVX NSCLC
K-562 leukemia = tested on: K-562 leukemia
NCI-H226 lung = tested on: NCI-H226 lung
HCT-116 colon = tested on: HCT-116 colon

Structure (SMILES) | TGI (NCI-H23 lung) [µM] | TGI (HCC-2998 colon) [µM] | TGI (HCT-15 colon) [µM] | TGI (IGROV1 ovarian) [µM] | TGI (HOP-62 NSCLC) [µM] | TGI (OVCAR-8 ovarian) [µM] | TGI (EKVX NSCLC) [µM] | TGI (K-562 leukemia) [µM] | GI50 (NCI-H23 lung) [µM] | GI50 (HCC-2998 colon) [µM] | GI50 (HCT-15 colon) [µM] | GI50 (IGROV1 ovarian) [µM] | GI50 (HOP-62 NSCLC) [µM] | GI50 (NCI-H226 lung) [µM] | TGI (NCI-H226 lung) [µM] | GI50 (OVCAR-8 ovarian) [µM] | GI50 (K-562 leukemia) [µM] | GI50 (HCT-116 colon) [µM] | TGI (HCT-116 colon) [µM] | GI50 (EKVX NSCLC) [µM]
CN(C)c1ccc(/C=C/C(=O)c2ccccc2)cc1Br | 40 | 37.5 | 54.7 | 48.5 | > 100 | 57.1 | > 100 | 75.7 |  |  |  |  |  |  |  |  |  |  |  | 
COc1ccccc1CNCCCN1C(=O)c2ccc3c4c(ccc(c24)C1=O)C(=O)N(CCCNCCCCNCCCCN)C3=O | 7.59 | 6.39 | 22.8 | 9.17 | 7.64 | 6.59 |  | > 36.9 | 2.43 | 1.8 | 2.92 | 2.8 | 1.78 | 1.83 | 6.65 | 0.59 | 1.02 | 0.407 |  | 
COC(=O)CSc1ccccc1 | > 100 | > 100 | > 100 | > 100 | > 100 | > 100 | > 100 | > 100 |  |  |  |  |  |  |  |  |  |  | > 100 | 
C#CC[C@@H]1C[C@]2(C)[C@H]3CC[C@@H]4[C@H]5[C@H](C(=C)C)CC[C@]5(C(=O)O)CC[C@@]4(C)[C@]3(C)CC[C@H]2C(C)(C)[C@H]1O | 6.95 | 38.5 | 6.61 | 15.6 | 5.28 | 4.81 | 10.6 | 20.9 | 2.38 | 4.44 | 1.89 | 4.21 | 2.08 | 2.05 | 6.56 | 2.17 | 2.32 |  |  | 2.63
C[C@]12CCC3[C@@H](C[C@H]4OC(=O)[C@@]35CCC(=O)C=C45)C1CCC2=O (some centres undefined) | > 100 | > 100 | > 100 | > 100 |  | > 100 | > 100 | > 100 |  |  |  |  |  |  | > 100 |  |  |  |  | 
Cc1cc2c(cc1C)N1Cc3c(ccc(C)c3C)N(C2)C1 (tested in a mixture with another compound) | > 100 | > 100 |  | > 100 | > 100 | > 100 | > 100 | > 100 |  |  |  |  |  |  | > 100 |  |  |  | > 100 | 
O=C1C(c2ccc([N+](=O)[O-])cc2)=[N+]([O-])c2ccccc21 | 63.4 |  | 54.4 | > 100 | 82.3 | 16.4 | > 100 | > 100 |  |  |  |  |  |  | > 100 |  |  |  | 64.3 | 
Cc1cc2cc(Cl)ccc2nc1C(=O)c1ccccc1 | > 100 | > 100 | > 100 | > 100 | > 100 | > 100 |  | > 100 |  |  |  |  |  |  | > 100 |  |  |  | > 100 | 
COc1cc(C2c3cc4c(cc3[C@H](NC(=O)c3cccs3)C3COC(=O)[C@H]23)OCO4)cc(OC)c1OC (some centres undefined) |  | 13.2 |  | > 100 |  | 94.4 | > 100 | > 37.8 |  |  |  |  |  |  |  |  |  |  | 1.05 | 
COc1cc(-c2cc(/C=C/C(=O)c3ccc4c(c3)OCO4)[nH]n2)cc(OC)c1OC | > 100 | 3.54 | 7.19 | 62.1 | 5.17 | 11.1 |  | 9.81 | 20.2 | 1.95 | 2.12 | 5 | 2.18 | 3.31 | > 100 | 2.85 | 3.2 |  |  | 
